Measurements as given in patent US9340590B2 (priority 2011, dated 2016).
Positions of bridges follow the written chain, without caps; N, C: chain ends. Non-standard residues stand in square brackets, D forms with d. Residues, ends and D or L forms follow the SMILES beside them. Trp(1-Me) = Cn1cc(C[C@H](N)C(=O)O)c2ccccc21; Lys(Me2) = CN(C)CCCC[C@H](N)C(=O)O

Legend:
[1] = target: hNav1.7 (Homo sapiens, UniProt Q15858); assay: cell-based; details: Nav1.7 Use IC50
[2] = target: hNav1.5 (Homo sapiens, UniProt Q14524); assay: cell-based
Chain of hNav1.5 (Q14524 whole entry, looked up): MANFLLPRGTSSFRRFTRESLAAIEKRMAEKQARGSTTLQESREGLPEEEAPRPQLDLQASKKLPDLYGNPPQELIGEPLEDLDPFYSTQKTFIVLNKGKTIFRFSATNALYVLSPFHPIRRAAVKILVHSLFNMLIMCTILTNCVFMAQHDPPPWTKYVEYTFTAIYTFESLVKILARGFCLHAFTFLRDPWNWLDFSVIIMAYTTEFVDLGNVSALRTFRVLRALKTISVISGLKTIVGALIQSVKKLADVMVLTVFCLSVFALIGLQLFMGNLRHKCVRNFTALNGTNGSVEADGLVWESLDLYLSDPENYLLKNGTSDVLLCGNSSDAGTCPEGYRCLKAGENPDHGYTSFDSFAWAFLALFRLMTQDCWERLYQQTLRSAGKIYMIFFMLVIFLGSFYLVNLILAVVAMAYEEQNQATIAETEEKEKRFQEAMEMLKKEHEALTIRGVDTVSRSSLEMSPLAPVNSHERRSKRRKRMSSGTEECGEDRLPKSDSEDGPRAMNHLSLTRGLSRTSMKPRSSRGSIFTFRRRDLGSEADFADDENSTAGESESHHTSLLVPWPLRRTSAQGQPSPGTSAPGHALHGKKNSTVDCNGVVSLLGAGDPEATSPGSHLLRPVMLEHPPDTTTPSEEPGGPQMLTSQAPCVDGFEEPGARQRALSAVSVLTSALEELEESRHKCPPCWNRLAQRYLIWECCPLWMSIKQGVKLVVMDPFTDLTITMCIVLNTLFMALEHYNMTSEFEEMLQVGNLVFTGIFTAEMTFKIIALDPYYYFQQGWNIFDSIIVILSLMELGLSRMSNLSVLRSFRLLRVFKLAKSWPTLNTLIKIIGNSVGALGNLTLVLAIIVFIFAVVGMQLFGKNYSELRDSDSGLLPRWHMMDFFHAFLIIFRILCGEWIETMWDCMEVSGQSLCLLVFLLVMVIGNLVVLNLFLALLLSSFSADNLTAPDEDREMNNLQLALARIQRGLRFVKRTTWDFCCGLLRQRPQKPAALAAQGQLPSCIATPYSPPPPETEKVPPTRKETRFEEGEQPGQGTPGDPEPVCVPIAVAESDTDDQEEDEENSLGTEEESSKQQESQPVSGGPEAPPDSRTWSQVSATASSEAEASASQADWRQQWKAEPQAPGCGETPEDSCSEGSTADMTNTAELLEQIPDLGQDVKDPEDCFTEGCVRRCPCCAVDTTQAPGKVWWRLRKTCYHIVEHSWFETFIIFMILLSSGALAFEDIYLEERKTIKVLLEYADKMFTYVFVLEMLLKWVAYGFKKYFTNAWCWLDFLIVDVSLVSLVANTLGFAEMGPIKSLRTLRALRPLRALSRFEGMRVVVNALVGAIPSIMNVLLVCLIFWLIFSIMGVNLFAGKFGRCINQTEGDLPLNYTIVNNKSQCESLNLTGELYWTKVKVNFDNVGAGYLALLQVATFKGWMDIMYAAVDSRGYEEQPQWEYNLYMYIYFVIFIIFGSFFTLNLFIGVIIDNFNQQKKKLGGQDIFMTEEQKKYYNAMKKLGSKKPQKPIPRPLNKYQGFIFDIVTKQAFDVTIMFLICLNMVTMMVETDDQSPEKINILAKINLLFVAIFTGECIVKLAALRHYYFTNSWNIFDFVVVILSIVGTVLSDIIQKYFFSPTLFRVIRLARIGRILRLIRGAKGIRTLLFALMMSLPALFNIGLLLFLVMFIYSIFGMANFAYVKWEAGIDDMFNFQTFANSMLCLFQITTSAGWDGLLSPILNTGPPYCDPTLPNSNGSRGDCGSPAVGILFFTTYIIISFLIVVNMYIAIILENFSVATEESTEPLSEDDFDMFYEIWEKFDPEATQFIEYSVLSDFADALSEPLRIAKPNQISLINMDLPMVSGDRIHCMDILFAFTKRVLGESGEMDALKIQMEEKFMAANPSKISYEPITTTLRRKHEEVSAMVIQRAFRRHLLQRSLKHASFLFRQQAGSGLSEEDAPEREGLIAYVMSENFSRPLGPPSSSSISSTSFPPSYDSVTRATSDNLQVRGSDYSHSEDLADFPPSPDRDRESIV

Chain of hNav1.7 (Q15858 whole entry, looked up): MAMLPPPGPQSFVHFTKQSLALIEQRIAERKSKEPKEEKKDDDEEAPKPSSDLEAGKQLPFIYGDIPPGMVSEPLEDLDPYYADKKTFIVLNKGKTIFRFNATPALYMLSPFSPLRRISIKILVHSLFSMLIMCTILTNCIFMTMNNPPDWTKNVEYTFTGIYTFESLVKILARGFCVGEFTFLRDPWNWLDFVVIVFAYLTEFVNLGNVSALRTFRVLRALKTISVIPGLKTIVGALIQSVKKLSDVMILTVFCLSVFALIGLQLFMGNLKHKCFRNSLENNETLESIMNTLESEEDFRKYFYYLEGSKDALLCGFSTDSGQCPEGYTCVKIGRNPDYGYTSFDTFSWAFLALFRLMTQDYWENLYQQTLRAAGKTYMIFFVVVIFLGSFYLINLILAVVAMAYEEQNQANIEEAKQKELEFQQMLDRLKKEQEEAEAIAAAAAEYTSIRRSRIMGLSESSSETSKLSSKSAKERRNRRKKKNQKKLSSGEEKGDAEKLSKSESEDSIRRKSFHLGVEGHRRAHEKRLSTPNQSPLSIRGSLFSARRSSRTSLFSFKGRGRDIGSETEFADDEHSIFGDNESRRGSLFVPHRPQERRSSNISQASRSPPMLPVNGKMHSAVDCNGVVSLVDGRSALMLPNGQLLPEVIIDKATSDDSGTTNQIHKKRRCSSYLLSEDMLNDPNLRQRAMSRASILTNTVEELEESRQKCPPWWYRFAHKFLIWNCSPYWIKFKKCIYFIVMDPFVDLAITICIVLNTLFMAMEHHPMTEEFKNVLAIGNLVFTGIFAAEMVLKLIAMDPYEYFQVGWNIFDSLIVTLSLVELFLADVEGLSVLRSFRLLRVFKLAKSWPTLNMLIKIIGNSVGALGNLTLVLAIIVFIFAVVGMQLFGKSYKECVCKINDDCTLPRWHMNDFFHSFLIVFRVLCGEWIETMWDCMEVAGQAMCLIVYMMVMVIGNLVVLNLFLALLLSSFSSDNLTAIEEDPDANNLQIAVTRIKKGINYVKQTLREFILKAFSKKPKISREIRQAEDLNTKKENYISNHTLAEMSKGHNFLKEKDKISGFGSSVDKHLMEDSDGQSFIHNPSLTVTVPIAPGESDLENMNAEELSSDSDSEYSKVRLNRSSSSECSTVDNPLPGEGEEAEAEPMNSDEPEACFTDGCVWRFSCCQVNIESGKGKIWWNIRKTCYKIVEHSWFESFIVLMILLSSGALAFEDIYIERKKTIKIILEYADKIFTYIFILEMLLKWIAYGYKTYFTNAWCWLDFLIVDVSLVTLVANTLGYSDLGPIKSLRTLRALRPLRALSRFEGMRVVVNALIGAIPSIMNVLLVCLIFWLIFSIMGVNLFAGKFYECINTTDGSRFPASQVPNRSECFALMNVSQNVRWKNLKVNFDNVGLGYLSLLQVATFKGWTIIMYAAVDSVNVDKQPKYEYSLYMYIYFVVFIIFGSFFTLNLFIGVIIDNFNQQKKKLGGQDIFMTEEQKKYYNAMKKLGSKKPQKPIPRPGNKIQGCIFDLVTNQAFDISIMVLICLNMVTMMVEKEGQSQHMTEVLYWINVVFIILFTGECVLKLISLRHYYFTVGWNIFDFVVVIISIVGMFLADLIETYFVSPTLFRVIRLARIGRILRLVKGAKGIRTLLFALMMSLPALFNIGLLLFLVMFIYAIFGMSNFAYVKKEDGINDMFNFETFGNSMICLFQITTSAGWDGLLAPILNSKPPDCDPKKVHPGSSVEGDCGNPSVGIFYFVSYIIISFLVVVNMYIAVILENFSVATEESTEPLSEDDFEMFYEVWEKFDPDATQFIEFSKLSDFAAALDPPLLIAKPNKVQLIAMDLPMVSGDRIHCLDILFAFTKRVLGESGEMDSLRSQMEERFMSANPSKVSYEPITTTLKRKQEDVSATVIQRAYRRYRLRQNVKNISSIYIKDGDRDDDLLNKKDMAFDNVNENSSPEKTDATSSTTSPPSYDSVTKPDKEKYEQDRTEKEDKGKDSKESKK

## CC[C@H](C)[C@@H]1NC(=O)[C@@H]2CSSC[C@@H]3NC(=O)[C@H](C(C)C)NC(=O)[C@H](CC(C)C)NC(=O)[C@H](CC(N)=O)NC(=O)[C@@H]4CCCN4C(=O)[C@H](CCCNC(=N)N)NC(=O)[C@H](CSSC[C@H](NC(=O)[C@@H](N)CC(=O)O)C(=O)N[C@@H](CC(C)C)C(=O)NCC(=O)N[C@@H](Cc4ccccc4)C(=O)N[C@@H](CCSC)C(=O)N[C@@H](CCCNC(=N)N)C(=O)N[C@@H](CCCCN)C(=O)N2)NC(=O)[C@H](CSSC[C@@H](C(=O)N[C@@H](CCCCN)C(=O)N[C@@H](Cc2ccc(O)cc2)C(=O)N[C@H](C(=O)N[C@@H](Cc2ccccc2)C(N)=O)C(C)C)NC(=O)[C@H](Cc2c[nH]c4ccccc24)NC(=O)[C@H](CCCCN)NC(=O)[C@H](Cc2c[nH]cn2)NC(=O)[C@H]([C@@H](C)O)NC(=O)[C@H](CCC(=O)O)NC(=O)[C@H](CO)NC3=O)NC(=O)[C@H](CCCCN)NC(=O)[C@H](CC(=O)O)NC(=O)[C@H](CC(N)=O)NC(=O)[C@H](CC(=O)O)NC(=O)[C@@H]2CCCN2C1=O [[Glu25]GpTx-1(1-34)] (H-DCLGFMRKCIPDNDKCCRPNLVCSETHKWCKYVF-NH2; disulfide 2-17, 9-23, 16-30)
[1]
  IC50: 28 nM
[2]
  IC50: > 10000 nM

## CC[C@H](C)[C@@H]1NC(=O)[C@@H]2CSSC[C@@H]3NC(=O)[C@H](C(C)C)NC(=O)[C@H](CC(C)C)NC(=O)[C@H](CC(N)=O)NC(=O)[C@@H]4CCCN4C(=O)[C@H](CCCNC(=N)N)NC(=O)[C@H](CSSC[C@H](NC(=O)[C@@H](N)CC(=O)O)C(=O)N[C@@H](CC(C)C)C(=O)NCC(=O)N[C@@H](Cc4ccccc4)C(=O)N[C@@H](CCSC)C(=O)N[C@@H](CCCNC(=N)N)C(=O)N[C@@H](CCCCN)C(=O)N2)NC(=O)[C@H](CSSC[C@@H](C(=O)N[C@@H](CCCCN)C(=O)N[C@@H](Cc2ccc(O)cc2)C(=O)N[C@H](C(=O)N[C@@H](Cc2ccccc2)C(N)=O)C(C)C)NC(=O)[C@H](Cc2c[nH]c4ccccc24)NC(=O)[C@H](CCCCN)NC(=O)[C@H](Cc2cnc[nH]2)NC(=O)[C@H](Cc2cnc[nH]2)NC(=O)[C@H](CCCNC(=N)N)NC(=O)[C@H](CO)NC3=O)NC(=O)[C@H](CCCCN)NC(=O)[C@H](CC(=O)O)NC(=O)[C@H](CC(N)=O)NC(=O)[C@H](CC(=O)O)NC(=O)[C@@H]2CCCN2C1=O [[His26]GpTx-1(1-34)] (H-DCLGFMRKCIPDNDKCCRPNLVCSRHHKWCKYVF-NH2; disulfide 2-17, 9-23, 16-30)
[1]
  IC50: 3 nM
[2]
  IC50: 4950 nM

## CC[C@H](C)[C@@H]1NC(=O)[C@@H]2CSSC[C@@H]3NC(=O)[C@H](C(C)C)NC(=O)[C@H](CC(C)C)NC(=O)[C@H](CC(N)=O)NC(=O)[C@@H]4CCCN4C(=O)[C@H](CCCNC(=N)N)NC(=O)[C@H](CSSC[C@H](NC(=O)[C@@H](N)CC(=O)O)C(=O)N[C@@H](CC(C)C)C(=O)NCC(=O)N[C@@H](Cc4ccccc4)C(=O)N[C@@H](CCSC)C(=O)N[C@@H](CCCNC(=N)N)C(=O)N[C@@H](CCCCN)C(=O)N2)NC(=O)[C@H](CSSC[C@@H](C(=O)N[C@@H](CCCCN)C(=O)N[C@@H](Cc2ccc(O)cc2)C(=O)N[C@H](C(=O)N[C@@H](Cc2ccccc2)C(N)=O)C(C)C)NC(=O)[C@H](Cc2c[nH]c4ccccc24)NC(=O)[C@H](CCCCN)NC(=O)[C@H](Cc2c[nH]cn2)NC(=O)[C@H]([C@@H](C)O)NC(=O)[C@H](CCCCN(C)C)NC(=O)[C@H](CO)NC3=O)NC(=O)[C@H](CCCCN)NC(=O)[C@H](CC(=O)O)NC(=O)[C@H](CC(N)=O)NC(=O)[C@H](CC(=O)O)NC(=O)[C@@H]2CCCN2C1=O [[K(Me2)25]GpTx-1(1-34)] (H-DCLGFMRKCIPDNDKCCRPNLVCS[Lys(Me2)]THKWCKYVF-NH2; disulfide 2-17, 9-23, 16-30)
[1]
  IC50: 8 nM
[2]
  IC50: 13300 nM

## CC[C@H](C)[C@@H]1NC(=O)[C@@H]2CSSC[C@@H]3NC(=O)[C@H](C(C)C)NC(=O)[C@H](CC(C)C)NC(=O)[C@H](CC(N)=O)NC(=O)[C@@H]4CCCN4C(=O)[C@H](CCCNC(=N)N)NC(=O)[C@H](CSSC[C@H](NC(=O)[C@@H](N)CC(=O)O)C(=O)N[C@@H](CC(C)C)C(=O)NCC(=O)N[C@@H](CC(C)C)C(=O)N[C@@H](CC(C)C)C(=O)N[C@@H](CCCNC(=N)N)C(=O)N[C@@H](CCCCN)C(=O)N2)NC(=O)[C@H](CSSC[C@@H](C(=O)N[C@@H](CCCCN)C(=O)N[C@@H](Cc2ccc(O)cc2)C(=O)N[C@H](C(=O)N[C@@H](Cc2ccccc2)C(N)=O)C(C)C)NC(=O)[C@H](Cc2c[nH]c4ccccc24)NC(=O)[C@H](CCCCN)NC(=O)[C@H](Cc2c[nH]cn2)NC(=O)[C@H]([C@@H](C)O)NC(=O)[C@H](CCCNC(=N)N)NC(=O)[C@H](CO)NC3=O)NC(=O)[C@H](CCCCN)NC(=O)[C@H](CC(=O)O)NC(=O)[C@H](CC(N)=O)NC(=O)[C@H](CC(=O)O)NC(=O)[C@@H]2CCCN2C1=O [[Leu5,6]GpTx-1(1-34)] (H-DCLGLLRKCIPDNDKCCRPNLVCSRTHKWCKYVF-NH2; disulfide 2-17, 9-23, 16-30)
[1]
  IC50: 11 nM
[2]
  IC50: > 10000 nM

## CC[C@H](C)[C@@H]1NC(=O)[C@@H]2CSSC[C@@H]3NC(=O)[C@H](C(C)C)NC(=O)[C@H](CC(C)C)NC(=O)[C@H](CC(N)=O)NC(=O)[C@@H]4CCCN4C(=O)[C@H](CCCCN)NC(=O)[C@H](CSSC[C@H](NC(=O)[C@@H](N)CC(=O)O)C(=O)N[C@@H](CC(C)C)C(=O)NCC(=O)N[C@@H](Cc4ccccc4)C(=O)N[C@@H](CCSC)C(=O)N[C@@H](CCCNC(=N)N)C(=O)N[C@@H](CCCCN)C(=O)N2)NC(=O)[C@H](CSSC[C@@H](C(=O)N[C@@H](CCCCN)C(=O)N[C@@H](Cc2ccc(O)cc2)C(=O)N[C@H](C(=O)N[C@@H](Cc2ccccc2)C(N)=O)C(C)C)NC(=O)[C@H](Cc2c[nH]c4ccccc24)NC(=O)[C@H](CCCCN)NC(=O)[C@H](Cc2cnc[nH]2)NC(=O)[C@H]([C@@H](C)O)NC(=O)[C@H](CCCNC(=N)N)NC(=O)[C@H](CO)NC3=O)NC(=O)[C@H](CCCCN)NC(=O)[C@H](CC(=O)O)NC(=O)[C@H](CC(N)=O)NC(=O)[C@H](CC(=O)O)NC(=O)[C@@H]2CCCN2C1=O [[Lys18]GpTx-1(1-34)] (H-DCLGFMRKCIPDNDKCCKPNLVCSRTHKWCKYVF-NH2; disulfide 2-17, 9-23, 16-30)
[1]
  IC50: 2 nM
[2]
  IC50: 16400 nM

## CC[C@H](C)[C@@H]1NC(=O)[C@@H]2CSSC[C@@H]3NC(=O)[C@H](C(C)C)NC(=O)[C@H](CC(C)C)NC(=O)[C@H](CC(N)=O)NC(=O)[C@H](CCCCN)NC(=O)[C@H](CCCNC(=N)N)NC(=O)[C@H](CSSC[C@H](NC(=O)[C@@H](N)CC(=O)O)C(=O)N[C@@H](CC(C)C)C(=O)NCC(=O)N[C@@H](Cc4ccccc4)C(=O)N[C@@H](CCSC)C(=O)N[C@@H](CCCNC(=N)N)C(=O)N[C@@H](CCCCN)C(=O)N2)NC(=O)[C@H](CSSC[C@@H](C(=O)N[C@@H](CCCCN)C(=O)N[C@@H](Cc2ccc(O)cc2)C(=O)N[C@H](C(=O)N[C@@H](Cc2ccccc2)C(N)=O)C(C)C)NC(=O)[C@H](Cc2c[nH]c4ccccc24)NC(=O)[C@H](CCCCN)NC(=O)[C@H](Cc2cnc[nH]2)NC(=O)[C@H]([C@@H](C)O)NC(=O)[C@H](CCCNC(=N)N)NC(=O)[C@H](CO)NC3=O)NC(=O)[C@H](CCCCN)NC(=O)[C@H](CC(=O)O)NC(=O)[C@H](CC(N)=O)NC(=O)[C@H](CC(=O)O)NC(=O)[C@@H]2CCCN2C1=O [[Lys19]GpTx-1(1-34)] (H-DCLGFMRKCIPDNDKCCRKNLVCSRTHKWCKYVF-NH2; disulfide 2-17, 9-23, 16-30)
[1]
  IC50: 3 nM
[2]
  IC50: 9100 nM

## CC[C@H](C)[C@@H]1NC(=O)[C@@H]2CSSC[C@@H]3NC(=O)[C@H](C(C)C)NC(=O)[C@H](CC(C)C)NC(=O)[C@H](CC(N)=O)NC(=O)[C@@H]4CCCN4C(=O)[C@H](CCCNC(=N)N)NC(=O)[C@H](CSSC[C@H](NC(=O)[C@@H](N)CC(=O)O)C(=O)N[C@@H](CC(C)C)C(=O)NCC(=O)N[C@@H](CCSC)C(=O)N[C@@H](CCSC)C(=O)N[C@@H](CCCNC(=N)N)C(=O)N[C@@H](CCCCN)C(=O)N2)NC(=O)[C@H](CSSC[C@@H](C(=O)N[C@@H](CCCCN)C(=O)N[C@@H](Cc2cn(C)c4ccccc24)C(=O)N[C@H](C(=O)N[C@@H](Cc2ccccc2)C(N)=O)C(C)C)NC(=O)[C@H](Cc2c[nH]c4ccccc24)NC(=O)[C@H](CCCCN)NC(=O)[C@H](Cc2c[nH]cn2)NC(=O)[C@H]([C@@H](C)O)NC(=O)[C@H](CCCNC(=N)N)NC(=O)[C@H](CO)NC3=O)NC(=O)[C@H](CCCCN)NC(=O)[C@H](CC(=O)O)NC(=O)[C@H](CC(N)=O)NC(=O)[C@H](CC(=O)O)NC(=O)[C@@H]2CCCN2C1=O [[Met5;1′NMeW32]GpTx-1(1-34)] (H-DCLGMMRKCIPDNDKCCRPNLVCSRTHKWCK[Trp(1-Me)]VF-NH2; disulfide 2-17, 9-23, 16-30)
[1]
  IC50: 7 nM
[2]
  IC50: 14800 nM

## CC[C@H](C)[C@@H]1NC(=O)[C@@H]2CSSC[C@@H]3NC(=O)[C@H](C(C)C)NC(=O)[C@H](CC(C)C)NC(=O)[C@H](CC(N)=O)NC(=O)[C@@H]4CCCN4C(=O)[C@H](CCCNC(=N)N)NC(=O)[C@H](CSSC[C@H](NC(=O)[C@@H](N)CC(=O)O)C(=O)N[C@@H](CC(C)C)C(=O)NCC(=O)N[C@@H](CCSC)C(=O)N[C@@H](CC(C)C)C(=O)N[C@@H](CCCNC(=N)N)C(=O)N[C@@H](CCCCN)C(=O)N2)NC(=O)[C@H](CSSC[C@@H](C(=O)N[C@@H](CCCCN)C(=O)N[C@@H](Cc2ccc(O)cc2)C(=O)N[C@H](C(=O)N[C@@H](Cc2ccccc2)C(N)=O)C(C)C)NC(=O)[C@H](Cc2c[nH]c4ccccc24)NC(=O)[C@H](CCCCN)NC(=O)[C@H](Cc2c[nH]cn2)NC(=O)[C@H]([C@@H](C)O)NC(=O)[C@H](CCCNC(=N)N)NC(=O)[C@H](CO)NC3=O)NC(=O)[C@H](CCCCN)NC(=O)[C@H](CC(=O)O)NC(=O)[C@H](CC(N)=O)NC(=O)[C@H](CC(=O)O)NC(=O)[C@@H]2CCCN2C1=O [[Met5;Leu6]GpTx-1(1-34)] (H-DCLGMLRKCIPDNDKCCRPNLVCSRTHKWCKYVF-NH2; disulfide 2-17, 9-23, 16-30)
[1]
  IC50: 270 nM
[2]
  IC50: > 10000 nM
